The values that follow come from US20220265845A1, “AMINOTHIOLESTER COMPOUNDS AND USES THEREOF” (ADVANCED BIODESIGN, priority 2019, published 2022).

SMILES strings stand for the structures.

What all share (format): biochemical
Test [1] has as its target T1, Human recombinant ALDH3A1 (Homo sapiens, UniProt P30838).
T1 sequence (P30838 1-453): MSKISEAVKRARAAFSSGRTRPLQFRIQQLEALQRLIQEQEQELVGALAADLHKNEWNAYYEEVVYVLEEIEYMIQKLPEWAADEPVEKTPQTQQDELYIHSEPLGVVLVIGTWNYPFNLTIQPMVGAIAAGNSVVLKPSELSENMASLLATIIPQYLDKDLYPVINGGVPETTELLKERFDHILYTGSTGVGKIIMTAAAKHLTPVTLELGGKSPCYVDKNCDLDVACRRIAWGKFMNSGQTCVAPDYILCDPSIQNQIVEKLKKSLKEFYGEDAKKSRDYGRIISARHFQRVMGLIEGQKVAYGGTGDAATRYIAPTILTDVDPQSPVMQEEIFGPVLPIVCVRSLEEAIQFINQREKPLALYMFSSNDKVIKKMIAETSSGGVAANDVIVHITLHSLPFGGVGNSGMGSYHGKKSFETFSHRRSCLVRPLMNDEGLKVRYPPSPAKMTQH
In words: Kinetic parameters and inhibition type from Kobs versus inhibitor concentration plots. Conditions: for Ki: printed in the Kinact/Ki column in place of Kinact/Ki. How it is done:
(§1) The kinetic data are expressed as the mean±standard error from three independent determination. Kinact/Ki was determined from Kobs versus concentration of the inhibitor [I] plots. […] The Kobs were obtained from negative exponential fit using non-linear regression program GraFit 5.0 (Erithacus software).
(§2) To determine the inhibition mechanisms of the tested compounds for each isoenzyme, the corresponding Kobs were calculated as mentioned above, plotting product concentration vs time incubation of the enzymes with the test compounds at 300 μM, 200 μM, 100 μM, 50 μM, 20 μM and 10 μM. The kobs were obtained for each concentration of inhibitor tested, from the negative exponential fit using non-linear regression program GraFit 5.0 (Erithacus software). Finally, the kinetic parameter of kinact/KI was determined from the plot of kobs versus the corresponding concentration of inhibitor. The slope of the linear fit of data indicated the rate constant in μM^−1·min^−1.

Test [2] addresses T2, Human recombinant ALDH1A1 (Homo sapiens, UniProt P00352).
T2 construct: purchased Creative BioMart, NY, USA
T2 sequence (P00352 1-501): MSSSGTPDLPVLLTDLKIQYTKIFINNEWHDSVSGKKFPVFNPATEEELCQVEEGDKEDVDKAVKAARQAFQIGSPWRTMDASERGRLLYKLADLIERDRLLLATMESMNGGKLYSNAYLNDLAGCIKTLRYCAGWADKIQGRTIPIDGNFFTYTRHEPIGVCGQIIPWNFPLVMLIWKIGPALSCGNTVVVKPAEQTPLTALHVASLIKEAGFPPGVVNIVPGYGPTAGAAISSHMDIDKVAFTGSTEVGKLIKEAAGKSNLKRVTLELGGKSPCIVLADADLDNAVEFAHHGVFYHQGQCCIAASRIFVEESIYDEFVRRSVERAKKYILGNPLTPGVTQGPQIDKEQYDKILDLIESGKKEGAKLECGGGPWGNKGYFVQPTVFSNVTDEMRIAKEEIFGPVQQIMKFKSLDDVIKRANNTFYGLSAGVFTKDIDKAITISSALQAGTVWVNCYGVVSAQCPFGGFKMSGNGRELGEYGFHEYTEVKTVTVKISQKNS
Described as above. The note with it: for kinact/KI: from Kobs versus [I] plots. The method, then: as §1, §2

In test [3] the target is T3, Human recombinant ALDH1A2 (Homo sapiens, UniProt O94788).
T3 construct: purchased Creative BioMart, NY, USA
T3 sequence (O94788 1-518): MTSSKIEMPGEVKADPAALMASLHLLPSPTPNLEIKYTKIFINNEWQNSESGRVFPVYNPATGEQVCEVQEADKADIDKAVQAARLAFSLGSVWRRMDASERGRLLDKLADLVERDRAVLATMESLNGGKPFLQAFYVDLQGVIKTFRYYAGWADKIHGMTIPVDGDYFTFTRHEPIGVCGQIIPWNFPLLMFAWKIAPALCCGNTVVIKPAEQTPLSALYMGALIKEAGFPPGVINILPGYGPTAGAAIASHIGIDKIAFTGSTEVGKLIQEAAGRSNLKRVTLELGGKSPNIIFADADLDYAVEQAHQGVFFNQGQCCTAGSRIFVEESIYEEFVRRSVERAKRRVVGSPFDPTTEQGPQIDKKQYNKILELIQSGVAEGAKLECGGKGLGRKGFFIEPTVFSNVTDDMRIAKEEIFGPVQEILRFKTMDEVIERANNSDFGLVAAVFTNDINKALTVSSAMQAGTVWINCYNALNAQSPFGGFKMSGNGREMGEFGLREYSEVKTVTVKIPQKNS
Described as above. Conditions: from Kobs versus [I] plots. How it is done: as §1, §2

Test [4] addresses T2, Human recombinant ALDH1A1. In words: Enzymatic assay with human recombinant ALDH (NADH fluorescence), IC50. The note with it: substrate Hexanal, NAD+, 37° C. The method, then:
Human recombinant ALDH1A1, ALDH1 A2, ALDH1A3, ALDH2 (Creative BioMart, NY, USA) were prepared at 1 mg/mL. The enzymatic reactions were performed using saturating concentrations of substrate. To test the enzymatic activity of the enzymes, 10 μL of enzyme was added into a reaction buffer containing 50 mM HEPES pH 7.2, 30 mM MgCl2, plus 20 mM NAD^+ cofactor and 2 mM Hexanal (Sigma-Aldrich, St. Louis, Mo., USA) in the presence or absence of the different tested compounds. Internal standards were prepared with Nicotinamide adenine dinucleotide reduce form (NADH, 500 μM, Sigma-Aldrich) in Reaction Buffer (50 mM HEPES pH 7.2, 30 mM MgCl2).
Time-dependent inhibition assays were performed for 0-2-5-10-15-20-30-45-60 min at 37° C. in 1 mL-quartz cuvette. The formation of NADH was monitored, reading samples at excitation wavelength=340 nm/emission wavelength=460 nm (fluorescence) for at least 600 sec using Cary Eclipse Varian fluorimeter.
Negative control consisted in the same reactions except that enzyme was not added (enzyme blank). To determine the slope for enzyme blank and calculate product concentration (Unit of fluorescence) the following formulae was used: […]
where Cst is the standard NADH concentration, Fst is the standard fluorescence and dF/dt is the slope of the time dependent fluorescence (S. Sotobodowska et al, 2012). The specific activity of the enzymes (μmol/min·mg-U/mg) in the absence of presence of inhibitors was calculated as follows: […]

A word on the Ki: it is the equilibrium dissociation constant of an inhibitor or competing ligand from its target. A word on the kinact/KI: it is the second-order rate constant of inactivation. The IC50 is the concentration needed to halve the response being measured.

As for `CSC(=O)C#CC(C)(C)N(C)C` [DIMATE, S-methyl 4-(dimethylamino)-4-methylpent-2-ynethioate, reference compound], the Ki in test [1] is 253 µM. Moreover, in test [2], the “ALDH1A1 Inhibition Type” value is given as “specific” and the kinact/KI is 15 M⁻¹ s⁻¹. Besides, the kinact/KI in test [3] is 85 M⁻¹ s⁻¹. Moreover, the IC50 in test [4] was 37 ± 5 µM.

In the case of `CSC(=O)C#CC(C)(C)N(C)CCOCc1ccccc1` [Example 3, S-methyl 4-[2-benzyloxyethyl(methyl)amino]-4-methyl-pent-2-ynethioate], the Ki in test [1] was found to be 233 µM. In addition, the kinact/KI in test [2] was 8.33 M⁻¹ s⁻¹; in test [3], 1670 M⁻¹ s⁻¹. For the same molecule, in test [4], the IC50 came out at 3.8 ± 1.1 µM.

With `CSC(=O)C#CC(C)(C)N(C)CCOCc1ccc(C)c(C)c1` [Example 5, S-methyl 4-[2-[(3,4-dimethylphenyl)methoxy]ethyl-methyl-amino]-4-methyl-pent-2-ynethioate], the inactivation efficiency (kinact/KI) is 5 M⁻¹ s⁻¹ in test [1] (from Kobs versus [I] plots), 61.7 M⁻¹ s⁻¹ in test [2] and 352 M⁻¹ s⁻¹ in test [3]. In addition, the IC50 in test [4] worked out at 4.3 ± 0.4 µM.
